# Experimental data taken from patent US20220062319A1, “COMBINATION IN THE TREATMENT OF NONTUBERCULOUS MYCOBACTERIAL DISEASES” (priority 2019, published 2022).
# Like-named read-outs stand apart in the source and are kept apart here.
# Key:
# [1] = system: M. bovis; experiment: microbe, parasite or virus in culture; format: cell-based; conditions: Mycobacterium tuberculosis variant bovis, read-out: MIC Median
# [2] = system: M. avium/M. intracellulare (MAC); experiment: Bedaquiline MIC, MAC; format: cell-based
# [3] = system: M. kansasii; experiment: Bedaquiline MIC, M. kansasii; format: cell-based; conditions: Mycobacterium kansasii, n=1, read-out: MIC Median
# [4] = system: M. marinum; experiment: Bedaquiline MIC, M. marinum; format: cell-based; conditions: Mycobacterium marinum, n=1, read-out: MIC Median
# [5] = system: M. fortuitum; experiment: Bedaquiline MIC, M. fortuitum; format: cell-based
# [6] = system: M. abscessus; experiment: Bedaquiline MIC, M. abscessus; format: cell-based; conditions: Mycobacteroides abscessus
# [7] = system: M. smegmatis; experiment: Bedaquiline MIC, M. smegmatis; format: cell-based
# [8] = system: M. ulcerans; experiment: Bedaquiline MIC, M. ulcerans; format: cell-based; conditions: Mycobacterium ulcerans
# [9] = system: other mycobacterial species; experiment: organism not typed; format: cell-based
# [10] = system: Mycobacterium xenopi; experiment: REMA MIC, control strain; format: cell-based; conditions: 168 h, control strain M. xenopi (×1), 7H9, 7 days
# [11] = system: Mycobacterium avium; experiment: REMA MIC and MBC, M. avium; format: cell-based; conditions: M. avium clinical isolates (×4), one line per isolate; for MIC: REMA
# [12] = system: Mycobacterium intracellulare; experiment: REMA MIC and MBC, M. intracellulare; format: cell-based; conditions: M. intracellulare clinical isolates (×4), one line per isolate; for MIC: REMA
# [13] = system: Mycobacterium chimaera; experiment: REMA MIC and MBC, M. chimaera; format: cell-based; conditions: Mycobacterium intracellulare, M. chimaera clinical isolates (×3), one line per isolate; for MIC: REMA
# [14] = system: Mycobacterium kansasii; experiment: REMA MIC and MBC, M. kansasii; format: cell-based
# [15] = system: Mycobacterium simiae; experiment: REMA MIC and MBC, M. simiae; format: cell-based; conditions: M. simiae clinical isolates (×2), one line per isolate; for MIC: REMA
# [16] = system: Mycobacterium marinum; experiment: REMA MIC and MBC, M. marinum; format: cell-based
# [17] = system: NTM clinical isolates (slow grower mycobacteria); experiment: MBC determination, NTM clinical isolates overall; format: cell-based; conditions: MBC = lowest concentration killing 100% of the bacteria
# Protocol: The MBC test allows determination of the minimum concentration of an agent necessary to achieve a bactericidal effect. The MBC was determined once the MIC was determined previously. To perform the MBC, the dilution representing the MIC and at least two of the more concentrated test product dilutions were plated and enumerated to determine viable CFU/ml. […] NTM clinical isolates used for this study were isolated from patients. In total, there were 18 isolates (in addition to the control strain): mycobacterium avium (x4 isolates), mycobacterium intracellulare (x4), mycobacterium chimaera (x3), mycobacterium kansasii (x2), mycobacterium ulcerans (x2), mycobacterium simiae (x2) and mycobacterium marinum (x1). […] MBC was considered the lowest concentration at which the bedaquiline kills 100% of the bacteria.
# [18] = in vivo; cited from earlier work
structure (smiles),measurement,setting,value
"COc1nc2ccc(Br)cc2cc1[C@@H](c1ccccc1)[C@@](O)(CCN(C)C)c1cccc2ccccc12 [Bedaquiline, (alpha S, beta R)-6-bromo-alpha-[2-(dimethylamino)ethyl]-2-methoxy-alpha-1-naphthalenyl-beta-phenyl-3-quinolineethanol]",MIC,[1],0.003 µg/mL
same,MIC,"[2]; Mycobacterium avium, n=7, read-out: MIC Median",0.01 µg/mL
same,MIC range,[2]; n=7,0.007 to 0.010 µg/mL
same,MIC,[3],0.003 µg/mL
same,MIC,[4],0.003 µg/mL
same,MIC,"[5]; Mycolicibacterium fortuitum, n=5, read-out: MIC Median",0.01 µg/mL
same,MIC range,[5]; n=5,0.007 to 0.010 µg/mL
same,MIC,"[6]; 1 isolate of M. abscessus, read-out: MIC",0.25 µg/mL
same,MIC,"[6]; M. abscessus, n=1, read-out: MIC Median",0.25 µg/mL
same,MIC,"[7]; Mycolicibacterium smegmatis, n=7, read-out: MIC Median",0.007 µg/mL
same,MIC range,[7]; n=7,0.003 to 0.10 µg/mL
same,MIC,"[8]; 1 isolate of M. ulcerans, read-out: MIC",0.5 µg/mL
same,MIC,"[8]; M. ulcerans, n=1, read-out: MIC Median",0.5 µg/mL
same,MIC,[9],< 0.1 µg/mL
same,MIC,[10],> 2 µg/mL
same,MBC,[11],1 µg/mL
same,MIC,[11],0.015 µg/mL
same,MIC,[11]; read-out: MIC,0.007 µg/mL
same,MBC,[12],2 µg/mL
same,MIC,[12],0.015 µg/mL
same,MIC,[12]; read-out: MIC,0.007 µg/mL
same,MBC,[13],1 µg/mL
same,MIC,[13],0.015 µg/mL
same,MIC,[13]; read-out: MIC,0.007 µg/mL
same,MIC,[14],0.015 µg/mL
same,MBC,[15],1 µg/mL
same,MIC,[15],0.015 µg/mL
same,MIC,[15]; read-out: MIC,0.03 µg/mL
same,MIC,[16],0.015 µg/mL
same,MBC,[16]; M. marinum clinical isolate (×1),2 µg/mL
same,bactericidal activity,[17],bactericidal activity for the majority of clinical isolates tested
same,improvement of bioavailability with food,[18],approximately 2 fold
